The numbers were not newly measured in patent US6641611B2, “Therapeutic coating for an intravascular implant” (priority 2001, dated 2003), which cites them from elsewhere.

Where two headings read alike, the source gives them in different places.

For series [1] the following is noted: for diabetes: high doses.

For `CO[C@H]1C[C@@H]2CC[C@@H](C)[C@@](O)(O2)C(=O)C(=O)N2CCCC[C@H]2C(=O)O[C@H]([C@H](C)C[C@@H]2CC[C@@H](O)[C@H](OC)C2)CC(=O)[C@H](C)/C=C(\C)[C@@H](O)[C@@H](OC)C(=O)[C@H](C)C[C@H](C)/C=C/C=C/C=C/1C` [rapamycin], the tolerability entry (fixed high dose monotherapy) is recorded as “well tolerated”. The “increase in rapamycin levels in combination compared to rapamycin alone” value (monkeys, fixed doses of both drugs in combination) is reported as 5 fold. Further, the diabetes result is recorded as “not” in series [1] (nonhuman primates) and “causes diabetes” in series [1] (rats). Also, in series [1] (several species), the body weight effect result is “weight loss”.
